Experiments:
trypsin = molecular target: T1, trypsin (Bos taurus, UniProt P00760); test: In vitro inhibition of trypsin hydrolysis of p-tosylarginine methyl ester; assay type: biochemical; conditions: trypsin 0.5 μg, p-tosylarginine methyl ester 20 mM, Tris-HCl pH 8.5, 37° C., 30 minutes; read-out: 50% Inhibition Concentration, Anti-Trypsin
T1 sequence (P00760 24-246): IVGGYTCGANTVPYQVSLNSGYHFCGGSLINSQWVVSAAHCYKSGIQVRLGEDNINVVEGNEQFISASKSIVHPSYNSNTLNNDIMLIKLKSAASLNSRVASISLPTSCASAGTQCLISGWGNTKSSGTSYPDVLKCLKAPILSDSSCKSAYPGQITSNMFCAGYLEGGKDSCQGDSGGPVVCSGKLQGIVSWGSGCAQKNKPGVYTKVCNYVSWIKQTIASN

plasmin = molecular target: T2, plasmin (Homo sapiens, UniProt P00747); test: In vitro inhibition of plasmin (human euglobulin, streptokinase, fibrinogen); assay type: biochemical; conditions: fibrinogen 4%, borate saline pH 7.4, 37° C., 30 minutes, read-out: 50% Inhibition Concentration, Anti-Plasmin
T2 construct: from tissue; host or cells: human euglobulin (blood plasma fraction), with streptokinase added
T2 sequence (P00747 581-810 limits assumed): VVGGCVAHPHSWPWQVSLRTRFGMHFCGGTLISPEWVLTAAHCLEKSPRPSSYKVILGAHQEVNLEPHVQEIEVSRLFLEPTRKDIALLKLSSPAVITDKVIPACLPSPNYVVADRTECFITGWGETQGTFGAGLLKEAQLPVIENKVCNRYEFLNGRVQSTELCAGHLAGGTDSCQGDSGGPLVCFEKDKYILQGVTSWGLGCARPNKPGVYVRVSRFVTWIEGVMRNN
T2 sequence (P00747 97-580 partner limits assumed): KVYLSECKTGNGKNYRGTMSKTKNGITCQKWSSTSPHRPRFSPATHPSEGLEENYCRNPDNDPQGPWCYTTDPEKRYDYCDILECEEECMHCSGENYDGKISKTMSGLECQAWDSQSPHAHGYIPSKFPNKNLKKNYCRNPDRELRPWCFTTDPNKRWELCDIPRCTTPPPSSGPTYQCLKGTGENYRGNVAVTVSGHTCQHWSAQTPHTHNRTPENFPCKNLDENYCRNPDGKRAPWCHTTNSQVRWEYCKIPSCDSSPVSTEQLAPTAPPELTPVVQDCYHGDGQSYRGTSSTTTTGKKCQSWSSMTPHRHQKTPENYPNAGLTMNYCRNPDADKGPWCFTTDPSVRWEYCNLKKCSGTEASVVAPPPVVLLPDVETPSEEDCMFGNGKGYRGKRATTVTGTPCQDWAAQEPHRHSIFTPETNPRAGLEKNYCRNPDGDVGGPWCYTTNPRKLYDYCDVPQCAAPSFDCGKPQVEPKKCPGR
Method: 0.1 ml of human euglobulin (10 fold dilution), 0.1 ml of streptokinase (2000 unit/ml), 0.4 ml of fibrinogen (4% solution), 0.3 ml of a 0.1 M borate saline buffer solution (pH 7.4) and 0.1 ml of a solution of each of the following compounds represented by the formula (I) at various concentrations was allowed to react at a temperature of 37° C. for 30 minutes.

Acute toxicity in rats = conditions: rat, in vivo, route and LD50 not given
Acute toxicity in mice = conditions: mouse, in vivo, route not given

SMILES	IC50 (trypsin)	IC50 (plasmin)	LD50 (Acute toxicity in rats)	LD50 (Acute toxicity in mice)
COC(=O)Cc1ccc(OC(=O)c2ccc(NC(=N)N)cc2)cc1 [methyl p-(p-guanidinobenzoyloxy)phenyl acetate]	9 nM	220 nM		
CS(=O)(=O)O.N=C(N)Nc1ccc(C(=O)Oc2ccc(CC(=O)O)cc2)cc1 [4-(4-guanidinobenzoyloxy)phenylacetic acid mesylate]			4400 mg/kg	4500 mg/kg
N=C(N)Nc1ccc(C(=O)Oc2ccc(CC(=O)O)cc2)cc1 [P-(p-Guanidinobenzoyloxy)phenylacetic Acid]	29 nM	250 nM		

Reference: patent US4224342A, “Guanidinobenzoic acid compounds and process for preparing the same” (Ono Pharmaceutical Co., Ltd., priority 1977, dated 1980)
